Assay results as given in patent publication US10251395B2, “Substituted furano-/thienocycloalkylamino-2-pyrimidine derivatives and use thereof for controlling undesired plant growth” (Bayer CropScience Aktiengesellschaft, priority 2015, dated 2019).

Columns and labels:
[1] = logP (HCOOH); type: physicochemical; details: for chromatographic logP: HCOOH (formic acid)
From the text: Table 2 (physicochemical characterization of selected synthesis examples)

[2] = system: Polygonum convolvulus; experiment: Post-emergence herbicidal effect; type: in vivo; details: 320 g/ha, assessed visually after about 3 weeks vs untreated controls
Procedure, shortened: (§1)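 Percent herbicidal action was judged by eye roughly 3 weeks post-application, 0% matching control plants and 100% meaning plant death. Seedlings, greenhouse-grown in sandy loam, received the spray at one leaf.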

[3] = system: Viola tricolor; experiment: Post-emergence herbicidal effect; type: in vivo; details: assessed visually after about 3 weeks vs untreated controls
Procedure, shortened: as §1

[4] = system: Abutilon theophrasti; experiment: Post-emergence herbicidal effect; type: in vivo; details: assessed visually after about 3 weeks vs untreated controls
Procedure, shortened: as §1

[5] = system: Amaranthus retroflexus; experiment: Post-emergence herbicidal effect; type: in vivo; details: assessed visually after about 3 weeks vs untreated controls
Procedure, shortened: as §1

[6] = system: Stellaria media; experiment: Post-emergence herbicidal effect; type: in vivo; details: 320 g/ha, assessed visually after about 3 weeks vs untreated controls
Procedure, shortened: as §1

[7] = system: Setaria viridis; experiment: Pre-emergence herbicidal effect; type: in vivo; details: scored visually after 3 weeks
Procedure, shortened: (§2)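 Visual damage score in % after 3 weeks in the greenhouse, relative to untreated controls (0% like control, 100% plants dead). Compounds were sprayed pre-emergence onto covering soil over seeds sown in sandy loam, as WP or EC in water at 600 to 800 L/ha plus 0.2% wetting agent.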

[8] = system: Polygonum convolvulus; experiment: Pre-emergence herbicidal effect; type: in vivo; details: scored visually after 3 weeks
Procedure, shortened: as §2

[9] = system: Alopecurus myosuroides; experiment: Pre-emergence herbicidal effect; type: in vivo; details: Dosage 320 g/ha, scored visually after 3 weeks
Procedure, shortened: as §2

[10] = system: Lolium multiflorum; experiment: Pre-emergence herbicidal effect; type: in vivo; details: Dosage 320 g/ha, scored visually after 3 weeks
Procedure, shortened: as §2

[11] = system: Viola tricolor; experiment: Pre-emergence herbicidal effect; type: in vivo; details: scored visually after 3 weeks
Procedure, shortened: as §2

[12] = system: Veronica persica; experiment: Pre-emergence herbicidal effect; type: in vivo; details: scored visually after 3 weeks
Procedure, shortened: as §2

[13] = system: Amaranthus retroflexus; experiment: Pre-emergence herbicidal effect; type: in vivo; details: scored visually after 3 weeks
Procedure, shortened: as §2

[14] = system: Stellaria media; experiment: Pre-emergence herbicidal effect; type: in vivo; details: scored visually after 3 weeks
Procedure, shortened: as §2

[15] = system: Matricaria inodora; experiment: Pre-emergence herbicidal effect; type: in vivo; details: scored visually after 3 weeks
Procedure, shortened: as §2

[16] = system: Echinochloa crus-galli; experiment: Pre-emergence herbicidal effect; type: in vivo; details: scored visually after 3 weeks
Procedure, shortened: as §2

[17] = system: Setaria viridis; experiment: Post-emergence herbicidal effect; type: in vivo; details: 320 g/ha, assessed visually after about 3 weeks vs untreated controls
Procedure, shortened: as §1

[18] = system: Veronica persica; experiment: Post-emergence herbicidal effect; type: in vivo; details: 320 g/ha, assessed visually after about 3 weeks vs untreated controls
Procedure, shortened: as §1

[19] = system: Ipomoea purpurea; experiment: Post-emergence herbicidal effect; type: in vivo; details: assessed visually after about 3 weeks vs untreated controls
Procedure, shortened: as §1

[20] = system: Matricaria inodora; experiment: Post-emergence herbicidal effect; type: in vivo; details: assessed visually after about 3 weeks vs untreated controls
Procedure, shortened: as §1

[21] = system: Echinochloa crus-galli; experiment: Post-emergence herbicidal effect; type: in vivo; details: 320 g/ha, assessed visually after about 3 weeks vs untreated controls
Procedure, shortened: as §1

[22] = system: Abutilon theophrasti; experiment: Pre-emergence herbicidal effect; type: in vivo; details: Dosage 320 g/ha, scored visually after 3 weeks
Procedure, shortened: as §2

For `Cc1cc2c(s1)CCCC2Nc1ncc(S(=O)(=O)C(C)(C)C)c(N)n1` (racemic) [compound 76], the “logP (HCOOH)” value [1] was “solid; logP (HCOOH): 3.01; 1H NMR (CDCl3, 400 MHZ, δ in ppm): ): 1.40 (s, 9H,”.
In the case of `Cc1cc2c(s1)CCC2Nc1ncc(S(=O)(=O)C(C)(C)C)c(N)n1` (racemic) [compound 77], the “logP (HCOOH)” value [1] is reported as “solid; logP (HCOOH): 2.67; 1H NMR (CDCl3, 400 MHZ, δ in ppm): 1.40 (s, 9H, 3*3H”.
In the case of `COc1nc(NC2CCCc3sc(C)cc32)ncc1F` (racemic) [compound 224], the “logP (HCOOH)” value [1] is reported as “solid; logP (HCOOH): 3.12; 1H NMR (CDCl3, 400 MHZ, δ in ppm): 1.90 (m, 3H, 3H”.
For `CO/N=C(/C)c1cnc(NC2CCCc3sccc32)nc1N` (racemic) [compound 292], the “post-emergence efficacy POLCO” value [2] was 30%, the “post-emergence efficacy VIOTR” value ([3]; 320 g/ha) was 80% and the “post-emergence efficacy ABUTH” value ([4]; 320 g/ha) was 80%. For the same molecule, the “post-emergence efficacy AMARE” value ([5]; 320 g/ha) was 80%, the “post-emergence efficacy STEME” value [6] was 90% and the “SETVI pre-emergence efficacy (herbicidal activity)” value (“SETVI pre-emergence efficacy” for short) ([7]; Dosage 320 g/ha) was 100%. The “POLCO pre-emergence efficacy (herbicidal activity)” value (“POLCO pre-emergence efficacy” for short) ([8]; Dosage 80 g/ha) was 70%, the “ALOMY pre-emergence efficacy (herbicidal activity)” value [9] was 100% and the “LOLMU pre-emergence efficacy (herbicidal activity)” value [10] was 70%. The “VIOTR pre-emergence efficacy (herbicidal activity)” value (“VIOTR pre-emergence efficacy” for short) ([11]; Dosage 80 g/ha) was 100%, the “VIOTR pre-emergence efficacy” value ([11]; Dosage 320 g/ha) was 100% and the “VERPE pre-emergence efficacy (herbicidal activity)” value (from here on “VERPE pre-emergence efficacy”) ([12]; Dosage 80 g/ha) was 100%. For the same molecule, the “VERPE pre-emergence efficacy” value ([12]; Dosage 320 g/ha) was 100%, the “AMARE pre-emergence efficacy (herbicidal activity)” value (from here on “AMARE pre-emergence efficacy”) ([13]; Dosage 320 g/ha) was 100% and the “STEME pre-emergence efficacy (herbicidal activity)” value (“STEME pre-emergence efficacy” for short) ([14]; Dosage 80 g/ha) was 100%. For the same molecule, the “STEME pre-emergence efficacy” value ([14]; Dosage 320 g/ha) was 100%, the “MATIN pre-emergence efficacy (herbicidal activity)” value (from here on “MATIN pre-emergence efficacy”) ([15]; Dosage 80 g/ha) was 80% and the “MATIN pre-emergence efficacy” value ([15]; Dosage 320 g/ha) was 100%. For the same molecule, the “ECHCG pre-emergence efficacy (herbicidal activity)” value (from here on “ECHCG pre-emergence efficacy”) ([16]; Dosage 320 g/ha) was 100%.
With `CC(=NO)c1cnc(NC2CCCc3sc(C)cc32)nc1N` (racemic) [compound 341] the “post-emergence efficacy SETVI” value [17] was 60%, the “post-emergence efficacy VIOTR” value ([3]; 80 g/ha) was 90% and the “post-emergence efficacy VIOTR” value ([3]; 320 g/ha) was 90%. The “post-emergence efficacy ABUTH” value ([4]; 80 g/ha) was 80%, the “post-emergence efficacy ABUTH” value ([4]; 320 g/ha) was 90% and the “post-emergence efficacy VERPE” value [18] was 100%. The “post-emergence efficacy AMARE” value ([5]; 80 g/ha) was 80%, the “post-emergence efficacy AMARE” value ([5]; 320 g/ha) was 90% and the “post-emergence efficacy STEME” value [6] was 60%. The “post-emergence efficacy PHBPU” value ([19]; 80 g/ha) was 80%, the “post-emergence efficacy PHBPU” value ([19]; 320 g/ha) was 90% and the “post-emergence efficacy MATIN” value ([20]; 80 g/ha) was 60%. For the same molecule, the “post-emergence efficacy MATIN” value ([20]; 320 g/ha) was 90%, the “post-emergence efficacy ECHCG” value [21] was 70% and the “SETVI pre-emergence efficacy” value ([7]; Dosage 80 g/ha) was 90%. For the same molecule, the “SETVI pre-emergence efficacy” value ([7]; Dosage 320 g/ha) was 100%, the “POLCO pre-emergence efficacy” value ([8]; Dosage 80 g/ha) was 70% and the “POLCO pre-emergence efficacy” value ([8]; Dosage 320 g/ha) was 100%. The “ALOMY pre-emergence efficacy (herbicidal activity)” value [9] was 70%, the “VIOTR pre-emergence efficacy” value ([11]; Dosage 80 g/ha) was 100% and the “VIOTR pre-emergence efficacy” value ([11]; Dosage 320 g/ha) was 100%. The “ABUTH pre-emergence efficacy (herbicidal activity)” value [22] was 70%, the “VERPE pre-emergence efficacy” value ([12]; Dosage 80 g/ha) was 100% and the “VERPE pre-emergence efficacy” value ([12]; Dosage 320 g/ha) was 100%. For the same molecule, the “AMARE pre-emergence efficacy” value ([13]; Dosage 80 g/ha) was 100%, the “AMARE pre-emergence efficacy” value ([13]; Dosage 320 g/ha) was 100% and the “STEME pre-emergence efficacy” value ([14]; Dosage 80 g/ha) was 100%. The “STEME pre-emergence efficacy” value ([14]; Dosage 320 g/ha) was 100%, the “MATIN pre-emergence efficacy” value ([15]; Dosage 80 g/ha) was 100% and the “MATIN pre-emergence efficacy” value ([15]; Dosage 320 g/ha) was 100%. For the same molecule, the “ECHCG pre-emergence efficacy” value ([16]; Dosage 80 g/ha) was 60% and the “ECHCG pre-emergence efficacy” value ([16]; Dosage 320 g/ha) was 100%.
Work on `CCCS(=O)(=O)c1cnc(NC2CCCc3sccc32)nc1N` (stereo not shown) [compound 37, 5-Propylsulfonyl-N2-(4,5,6,7-tetrahydrobenzothiophen-4-yl)pyrimidine-2,4-diamine] yielded a chromatographic logP [1] of 2.33.
Molecule `Cc1cc2c(o1)CC(C)(C)CC2Nc1ncc([N+](=O)[O-])c(N)n1` (stereo not shown) [compound 40, 5-Nitro-N2-(2,6,6-trimethyl-4,5,6,7-tetrahydro-1-benzofuran-4-yl)pyrimidine-2,4-diamine] has a chromatographic logP [1] of 3.2.
For `CC(=O)c1cnc(N[C@@H]2CCCc3sccc32)nc1C` [compound 71], the “logP (HCOOH)” value [1] was “solid; logP (HCOOH): 2.98; 1H NMR (CDCl3, 400 MHZ, δ in ppm): ): 1.85 (m, 3H,”.
For `Cc1nc(N[C@@H]2CCCc3sccc32)ncc1F` [compound 223], the “logP (HCOOH)” value [1] was “solid; logP (HCOOH): 2.57; 1H NMR (CDCl3, 400 MHZ, δ in ppm): 1.90 (m, 3H, 3H”.
